# Measured values as given in paper PMC10013850 (Proceedings of the National Academy of Sciences of the …, 2023).
# T1: hMfsd2a (Homo sapiens, UniProt Q8NA29)
# T1 sequence (Q8NA29 1-530 isoform Q8NA29-2): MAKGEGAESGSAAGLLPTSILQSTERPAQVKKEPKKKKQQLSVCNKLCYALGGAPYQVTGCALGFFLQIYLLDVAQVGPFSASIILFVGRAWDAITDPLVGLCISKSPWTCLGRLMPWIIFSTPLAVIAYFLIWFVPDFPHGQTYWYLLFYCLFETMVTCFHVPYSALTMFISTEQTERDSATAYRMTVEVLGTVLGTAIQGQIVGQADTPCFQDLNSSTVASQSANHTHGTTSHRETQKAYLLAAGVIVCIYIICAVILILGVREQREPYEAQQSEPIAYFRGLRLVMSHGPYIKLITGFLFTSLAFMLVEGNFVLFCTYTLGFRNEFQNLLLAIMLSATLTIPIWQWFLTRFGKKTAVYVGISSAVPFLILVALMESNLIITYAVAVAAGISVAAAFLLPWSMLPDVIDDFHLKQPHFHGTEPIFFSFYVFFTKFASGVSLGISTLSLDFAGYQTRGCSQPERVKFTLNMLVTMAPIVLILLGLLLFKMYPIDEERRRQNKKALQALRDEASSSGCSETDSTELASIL
# B1: hMfsd2a (Homo sapiens) (protein)
# chain: MAKGEGAESGSAAGLLPTSILQSTERPAQVKKEPKKKKQQLSVCNKLCYALGGAPYQVTGCALGFFLQIYLLDVAQVGPFSASIILFVGRAWDAITDPLVGLCISKSPWTCLGRLMPWIIFSTPLAVIAYFLIWFVPDFPHGQTYWYLLFYCLFETMVTCFHVPYSALTMFISTEQTERDSATAYRMTVEVLGTVLGTAIQGQIVGQADTPCFQDLNSSTVASQSANHTHGTTSHRETQKAYLLAAGVIVCIYIICAVILILGVREQREPYEAQQSEPIAYFRGLRLVMSHGPYIKLITGFLFTSLAFMLVEGNFVLFCTYTLGFRNEFQNLLLAIMLSATLTIPIWQWFLTRFGKKTAVYVGISSAVPFLILVALMESNLIITYAVAVAAGISVAAAFLLPWSMLPDVIDDFHLKQPHFHGTEPIFFSFYVFFTKFASGVSLGISTLSLDFAGYQTRGCSQPERVKFTLNMLVTMAPIVLILLGLLLFKMYPIDEERRRQNKKALQALRDEASSSGCSETDSTELASIL
# Columns and labels:
# hMfsd2a = biological target: T1, hMfsd2a; assay: single-cell flow cytometry uptake assay in transfected HEK293 cells; details: read-out: apparent Km; 37 °C, 30 min, serum-free DMEM; labelled compound
# [1] = substrate: C[N+](C)(C)CCOP(=O)([O-])OC[C@H](O)COC(=O)CCCCCCCCCCCNc1ccc([N+](=O)[O-])c2nonc12; assay: cells, lysate or membranes; details: 37 °C, 30 min, serum-free DMEM, labelled compound
molecule,measurement,setting,value
LPC-16:1-NBD,Km,hMfsd2a,3 µM
B1,Km,[1],244 µM
